Species on record: Rattus norvegicus
Assay: DrugMatrix - Regimen: Daily Repeat
Format: toxicity, organism-based, Sprague-Dawley
Parameters: regimen Daily Repeat, gender Male, age 6-8 weeks
Settings: in vivo, po, route oral GAVAGE, […]; for ABSOLUTE BASOPHIL / ABSOLUTE EOSINOPHIL / ABSOLUTE LYMPHOCYTE / ABSOLUTE MONOCYTE / ABSOLUTE SEGMENTED NEUTROPHIL / BASOPHIL / EOSINOPHIL / ERYTHROCYTE COUNT / HEMATOCRIT / HEMOGLOBIN / LEUKOCYTE COUNT / LYMPHOCYTE / MEAN CORPUSCULAR HEMOGLOBIN / MEAN CORPUSCULAR HEMOGLOBIN CONCENTRATION / MEAN CORPUSCULAR VOLUME / MONOCYTE / NEUTROPHIL / NUCLEATED RED BLOOD CELLS / PLATELET COUNT: tissue Blood; for ALANINE AMINOTRANSFERASE / ALBUMIN / ALKALINE PHOSPHATASE / ASPARTATE AMINOTRANSFERASE / BLOOD UREA NITROGEN / CARBON DIOXIDE / CHLORIDE / CHOLESTEROL / CREATINE PHOSPHOKINASE / CREATININE / GLUCOSE / LACTATE DEHYDROGENASE / LIPASE / PHOSPHORUS / POTASSIUM / SODIUM / TOTAL BILIRUBIN / TOTAL PROTEIN / URIC ACID: tissue Plasma
[1] = 0 mg/kg, 72 h, dose level Control, time 3 day
[2] = 0 mg/kg, 120 h, dose level Control, time 5 day
[3] = 2 mg/kg, 72 h, dose level High, time 3 day

With `COc1ccc2c(c1)c(CC(=O)OCC(=O)O)c(C)n2C(=O)c1ccc(Cl)cc1` [ACEMETACIN] the “ABSOLUTE BASOPHIL” value [1] was 0 CELLS/uL, the “ABSOLUTE EOSINOPHIL” value [1] was 138.5 CELLS/uL and the “ABSOLUTE LYMPHOCYTE” value [1] was 13978.67 CELLS/uL. For the same compound, the “ABSOLUTE MONOCYTE” value [1] was 391 CELLS/uL, the “ABSOLUTE SEGMENTED NEUTROPHIL” value [1] was 1608.5 CELLS/uL and the BASOPHIL [1] was 0%. For the same compound, the EOSINOPHIL [1] was 1%, the “ERYTHROCYTE COUNT” value [1] was 5.8 x10E6/uL and the HEMATOCRIT [1] was 36.22%. For the same compound, the HEMOGLOBIN [1] was 13.65 G/DL, the “LEUKOCYTE COUNT” value [1] was 16.12 x10E3/uL and the LYMPHOCYTE [1] was 86.67%. The “MEAN CORPUSCULAR HEMOGLOBIN” value [1] was 23.58 pg, the “MEAN CORPUSCULAR HEMOGLOBIN CONCENTRATION” value [1] was 37.72 G/DL and the “MEAN CORPUSCULAR VOLUME” value [1] was 62.52 fL. For the same compound, the MONOCYTE [1] was 2.5%, the NEUTROPHIL [1] was 9.83% and the “NUCLEATED RED BLOOD CELLS” value [1] was 0 /100WBC. For the same compound, the “PLATELET COUNT” value [1] was 1214.17 x10E3/uL, the “ALANINE AMINOTRANSFERASE” value [1] was 59.5 u/L and the ALBUMIN [1] was 4.1 G/DL. The “ALKALINE PHOSPHATASE” value [1] was 393.83 u/L, the “ASPARTATE AMINOTRANSFERASE” value [1] was 87.83 u/L and the “BLOOD UREA NITROGEN” value [1] was 16.33 mg/dL. For the same compound, the “CARBON DIOXIDE” value [1] was 28.17 mmol/L, the CHLORIDE [1] was 100.83 MEQ/L and the CHOLESTEROL [1] was 73.33 mg/dL. The “CREATINE PHOSPHOKINASE” value [1] was 398 u/L, the CREATININE [1] was 0.2 mg/dL and the GLUCOSE [1] was 152.67 mg/dL. The “LACTATE DEHYDROGENASE” value [1] was 501.5 u/L, the LIPASE [1] was 9.5 u/L and the PHOSPHORUS [1] was 10.77 mg/dL. The POTASSIUM [1] was 6.44 MEQ/L, the SODIUM [1] was 143.4 MEQ/L and the “TOTAL BILIRUBIN” value [1] was 0.17 mg/dL. The “TOTAL PROTEIN” value [1] was 5.92 G/DL, the “URIC ACID” value [1] was 1.68 mg/dL and the “ABSOLUTE BASOPHIL” value [2] was 0 CELLS/uL. The “ABSOLUTE EOSINOPHIL” value [2] was 183.33 CELLS/uL, the “ABSOLUTE LYMPHOCYTE” value [2] was 14952.83 CELLS/uL and the “ABSOLUTE MONOCYTE” value [2] was 238.5 CELLS/uL. For the same compound, the “ABSOLUTE SEGMENTED NEUTROPHIL” value [2] was 1642 CELLS/uL, the BASOPHIL [2] was 0% and the EOSINOPHIL [2] was 1%. The “ERYTHROCYTE COUNT” value [2] was 5.89 x10E6/uL, the HEMATOCRIT [2] was 36.13% and the HEMOGLOBIN [2] was 13.37 G/DL. For the same compound, the “LEUKOCYTE COUNT” value [2] was 17.02 x10E3/uL, the LYMPHOCYTE [2] was 87.17% and the “MEAN CORPUSCULAR HEMOGLOBIN” value [2] was 22.73 pg. For the same compound, the “MEAN CORPUSCULAR HEMOGLOBIN CONCENTRATION” value [2] was 37.02 G/DL, the “MEAN CORPUSCULAR VOLUME” value [2] was 61.45 fL and the MONOCYTE [2] was 1.5%. For the same compound, the NEUTROPHIL [2] was 10.33%, the “NUCLEATED RED BLOOD CELLS” value [2] was 0 /100WBC and the “PLATELET COUNT” value [2] was 1183.5 x10E3/uL. The “ALANINE AMINOTRANSFERASE” value [2] was 54.83 u/L, the ALBUMIN [2] was 4.28 G/DL and the “ALKALINE PHOSPHATASE” value [2] was 363.17 u/L. The “ASPARTATE AMINOTRANSFERASE” value [2] was 96.83 u/L, the “BLOOD UREA NITROGEN” value [2] was 15.67 mg/dL and the “CARBON DIOXIDE” value [2] was 26.17 mmol/L. The CHLORIDE [2] was 102.67 MEQ/L, the CHOLESTEROL [2] was 63.67 mg/dL and the “CREATINE PHOSPHOKINASE” value [2] was 594.33 u/L. For the same compound, the CREATININE [2] was 0.2 mg/dL, the GLUCOSE [2] was 182.33 mg/dL and the “LACTATE DEHYDROGENASE” value [2] was 656.5 u/L. For the same compound, the LIPASE [2] was 9.33 u/L, the PHOSPHORUS [2] was 11.7 mg/dL and the POTASSIUM [2] was 5.92 MEQ/L. The SODIUM [2] was 142.62 MEQ/L, the “TOTAL BILIRUBIN” value [2] was 0.13 mg/dL and the “TOTAL PROTEIN” value [2] was 5.85 G/DL. For the same compound, the “URIC ACID” value [2] was 1.8 mg/dL, the “ABSOLUTE BASOPHIL” value [3] was 0 CELLS/uL and the “ABSOLUTE EOSINOPHIL” value [3] was 380 CELLS/uL. The “ABSOLUTE LYMPHOCYTE” value [3] was 13622 CELLS/uL, the “ABSOLUTE MONOCYTE” value [3] was 500 CELLS/uL and the “ABSOLUTE SEGMENTED NEUTROPHIL” value [3] was 2164.67 CELLS/uL. The BASOPHIL [3] was 0%, the EOSINOPHIL [3] was 2.33% and the “ERYTHROCYTE COUNT” value [3] was 5.07 x10E6/uL. For the same compound, the HEMATOCRIT [3] was 32.77%, the HEMOGLOBIN [3] was 12.63 G/DL and the “LEUKOCYTE COUNT” value [3] was 16.67 x10E3/uL. The LYMPHOCYTE [3] was 81.67%, the “MEAN CORPUSCULAR HEMOGLOBIN” value [3] was 24.97 pg and the “MEAN CORPUSCULAR HEMOGLOBIN CONCENTRATION” value [3] was 38.57 G/DL. For the same compound, the “MEAN CORPUSCULAR VOLUME” value [3] was 64.77 fL, the MONOCYTE [3] was 3% and the NEUTROPHIL [3] was 13%. For the same compound, the “NUCLEATED RED BLOOD CELLS” value [3] was 0.33 /100WBC, the “PLATELET COUNT” value [3] was 1026.67 x10E3/uL and the “ALANINE AMINOTRANSFERASE” value [3] was 66.67 u/L. The ALBUMIN [3] was 4.07 G/DL, the “ALKALINE PHOSPHATASE” value [3] was 414.67 u/L and the “ASPARTATE AMINOTRANSFERASE” value [3] was 86 u/L. For the same compound, the “BLOOD UREA NITROGEN” value [3] was 15 mg/dL, the “CARBON DIOXIDE” value [3] was 28.67 mmol/L and the CHLORIDE [3] was 101.67 MEQ/L. For the same compound, the CHOLESTEROL [3] was 68 mg/dL, the “CREATINE PHOSPHOKINASE” value [3] was 297.67 u/L and the CREATININE [3] was 0.19 mg/dL. The GLUCOSE [3] was 146.67 mg/dL, the “LACTATE DEHYDROGENASE” value [3] was 197.67 u/L and the LIPASE [3] was 9.33 u/L. For the same compound, the PHOSPHORUS [3] was 10.4 mg/dL, the POTASSIUM [3] was 6.36 MEQ/L and the SODIUM [3] was 141.2 MEQ/L. For the same compound, the “TOTAL BILIRUBIN” value [3] was 0.17 mg/dL, the “TOTAL PROTEIN” value [3] was 5.47 G/DL and the “URIC ACID” value [3] was 1.13 mg/dL.

— ChEMBL document CHEMBL3885881, “DrugMatrix”
